Tested on: mixed fungal spore suspension of Alternaria alternata, Aureobasidium pullulans, Cladosporium herbarum, Phoma violacea, and Stemphylium dendriticum
Assay: Evaluation as a paint film fungicide (acrylic emulsion paint on wooden test pieces, spray inoculated)
Format: cell-based
Details: 25°C, four weeks, two scores per cell; for Fungal Growth L2: L2 (leached for two days); for Fungal Growth UL: UL (test pieces not leached); for Fungal Growth L1: L1 (leached with water spray for one day)
Experimental: In the following examples, the compositions obtained were subjected to microbiological evaluation as paint film fungicides. The compositions were also tested for anti-algal properties. The microbiological testing was effected as follows: The products were tested for activity against fungi which were one or more of Alternaria alternata, Aureobasidum pullulans, Cladosporium herbarum, Phoma violacea and Stemphylium dendriticum.
The compositions to be tested were obtained as described in Examples 1 to 6 and the Comparative Examples. The compositions were added as a solid blend to samples of an exterior acrylic emulsion paint (based on Revacryl 1A latex at pH 9) in glass bottles and mixed to give final active ingredient levels in the paint of 1.0, 0.5 and 0.25% w/v.
The bottles containing paint plus biocide composition were sealed and stored at 40°C for three days.
Small wooden test pieces were prepared for each paint composition by priming and then brushing on two full even coats.
One set of the coated test pieces was stored at ambient temperature in the dark. A further set of coated test pieces was placed in a leaching device in which the test pieces were sprayed with water for one day and the test pieces were removed from the leaching device and dried. Yet a further set of coated test pieces was subjected to leaching for two days.
The coated test pieces were then transferred to a high humidity chamber. Each test piece was then spray inoculated with a mixed fungal spore suspension of Alternaria alternata, Aureobasidium pullulans, Cladosporium herbarum, Phoma violacea, and Stemphylium dendriticum.
Incubation was carried out at 25°C for four weeks. After this period the paint films were examined for fungal growth by naked eye and by stereo optical microscope.
The compositions of Examples 1 to 6 and the Comparative Examples were evaluated as paint film fungicides using the technique described previously herein. For comparative purposes paints containing only tetrachloroisophthalonitrile (NC); 3-(3,4-dichlorophenyl)-1,1-dimethylurea (DU); 2,3,5,6-thetrachloro-4-(methylsulphonyl) pyridine (DS); di-iodomethyl-4-methylphenylsulphone (AM); or zinc oxide (ZO) were also evaluated under the same conditions.

[1] = 0.25% w/v active ingredient in paint
[2] = 0.5% w/v active ingredient in paint
[3] = 1.0% w/v active ingredient in paint

Compound: Cc1ccc(S(=O)(=O)C(I)I)cc1 [AM, di-iodomethyl-4-methylphenylsulphone]
- Fungal Growth L2 [1]: 4,4
- Fungal Growth UL [1]: 0,0
- Fungal Growth L2 [2]: 1,2
- Fungal Growth UL [2]: 0,0
- Fungal Growth L2 [3]: 0,0
- Fungal Growth UL [3]: 0,0

Compound: CS(=O)(=O)c1c(Cl)c(Cl)nc(Cl)c1Cl [DS, 2,3,5,6-tetrachloro-4-(methylsulphonyl)pyridine]
- Fungal Growth L2 [1]: 5,4
- Fungal Growth UL [1]: 2,2
- Fungal Growth L2 [2]: 2,3
- Fungal Growth UL [2]: 1,1
- Fungal Growth L2 [3]: 1,0
- Fungal Growth UL [3]: 0.1

Compound: CN(C)C(=O)Nc1ccc(Cl)c(Cl)c1 [DU, 3-(3,4-dichlorophenyl)-1,1-dimethylurea]
- Fungal Growth L2 [3]: 5,5
- Fungal Growth UL [3]: 5,5

Compound: N#Cc1c(Cl)c(Cl)c(Cl)c(C#N)c1Cl [NC, tetrachloroisophthalonitrile]
- Fungal Growth L1 [1]: 4,4
- Fungal Growth L2 [1]: 5,5
- Fungal Growth UL [1]: 3,4
- Fungal Growth L1 [2]: 4,5
- Fungal Growth L2 [2]: 3,5
- Fungal Growth UL [2]: 2,3
- Fungal Growth L1 [3]: 2,5
- Fungal Growth L2 [3]: 4,5
- Fungal Growth UL [3]: 0,0

Source: EP0345955B1, “Anti-microbial composition and use thereof” (IMPERIAL CHEMICAL INDUSTRIES PLC, priority 1988, dated 1989)
